Literature values in patent publication US7468434B2, “Diazene-bridge crown ether lithium compounds and methods for their use” (The University of Hong Kong, priority 2004, dated 2008).

Tested on: retinal ganglion cells
Details: ocular hypertensive model

In the case of lithium chloride, the “prevention of degeneration of RGC” value is given as “could prevent degeneration of RGC”.
